# Laboratory results published in the supplement of paper PMC10307832.
# Experiments:
# Assay in all cases: relative viability (nuclei count vs DMSO), 5 days (fraction); higher = more cells survive
# [1] = compound: CCN(CCO)CCCC(C)Nc1ccnc2cc(Cl)ccc12 [Hydroxychloroquine] + CC(=O)c1c(C)c2cnc(Nc3ccc(N4CCNCC4)cn3)nc2n(C2CCCC2)c1=O [Palbociclib] (partner 0.5 µM)
# How it was run: (§1)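 Lung cancer cell lines, seeded in 1536-well plates, were treated the following day by pin tool with a single drug or with five library-drug doses (not always all listed) in √10 steps on top of a fixed anchor-drug dose. Cells were fixed and nuclei stained in one step after 5 days, and nuclei were counted. Relative viability is the nuclei count for treated wells divided by that for vehicle wells, reported as medians of duplicate plates.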
# [2] = compound: CCN(CCO)CCCC(C)Nc1ccnc2cc(Cl)ccc12 [Hydroxychloroquine] + CC(C)C[C@H](NC(=O)[C@H](Cc1ccccc1)NC(=O)c1cnccn1)B(O)O [Bortezomib] (partner 0.002 µM)
# How it was run: as §1
# [3] = compound: CCN(CCO)CCCC(C)Nc1ccnc2cc(Cl)ccc12 [Hydroxychloroquine] + Cc1nc(NC(=O)N2CCC[C@H]2C(N)=O)sc1-c1ccnc(C(C)(C)C(F)(F)F)c1 [Alpelisib] (partner 2 µM)
# How it was run: as §1
# [4] = compound: CCN(CCO)CCCC(C)Nc1ccnc2cc(Cl)ccc12 [Hydroxychloroquine] + Cc1nc(Nc2ncc(C(=O)Nc3c(C)cccc3Cl)s2)cc(N2CCN(CCO)CC2)n1 [Dasatinib] (partner 0.075 µM)
# How it was run: as §1
Cell Line,relative viability ([1]; first compound 0.5 µM),relative viability ([1]; first compound 1.581 µM),relative viability ([1]; first compound 5 µM),relative viability ([1]; first compound 15.81 µM),relative viability ([1]; first compound 50 µM),relative viability ([2]; first compound 0.5 µM),relative viability ([2]; first compound 1.581 µM),relative viability ([2]; first compound 5 µM),relative viability ([2]; first compound 15.81 µM),relative viability ([2]; first compound 50 µM),relative viability ([3]; first compound 0.5 µM),relative viability ([3]; first compound 1.581 µM),relative viability ([3]; first compound 5 µM),relative viability ([3]; first compound 15.81 µM),relative viability ([3]; first compound 50 µM),relative viability ([4]; first compound 0.5 µM),relative viability ([4]; first compound 1.581 µM),relative viability ([4]; first compound 5 µM),relative viability ([4]; first compound 15.81 µM),relative viability ([4]; first compound 50 µM)
NCI-H727,0.643,0.552,0.561,0.661,0.688,0.975,0.749,0.89,0.823,0.885,0.454,0.58,0.589,0.512,0.526,0.337,0.379,0.471,0.43,0.457
NCI-H661,0.404,0.364,0.413,0.377,0.403,0.795,0.719,0.652,0.761,0.825,0.665,0.567,0.795,0.547,0.481,0.841,0.872,0.764,0.722,0.894
NCI-H650,0.341,0.288,0.3,0.35,0.311,0.911,0.759,–,0.901,0.748,1.08,1.17,–,1.1,1.17,0.501,0.405,0.446,0.458,0.479
201T,0.339,0.351,0.378,0.379,0.384,1.07,1.09,1.1,1.07,1.11,1.03,0.916,1.02,1.03,1.01,0.582,0.578,0.598,0.606,0.608
PC-14,0.481,0.545,0.535,0.554,0.394,0.783,0.959,0.925,0.788,0.852,0.782,0.858,0.951,0.892,1.01,0.232,0.199,0.253,0.213,0.29
UMC-11,0.285,0.304,0.413,0.311,0.305,0.626,0.822,0.863,0.657,1.15,0.841,0.956,0.962,1.06,1.2,–,0.504,0.473,0.628,0.6
PC-3 [JPC-3],0.538,0.576,0.59,0.561,0.511,0.787,0.841,0.812,0.694,0.94,1.01,1.04,1.06,1,1.02,0.94,0.873,0.971,1.21,1.16
COR-L23,0.215,0.232,0.309,0.299,0.307,0.89,1.17,1,1.28,1.21,0.739,0.813,0.899,0.961,0.906,0.472,0.543,0.533,0.421,0.534
HCC-78,0.469,0.48,0.483,0.527,0.451,0.425,0.482,0.525,0.519,0.568,0.394,0.299,0.316,0.331,0.31,0.529,0.421,0.495,0.374,0.375
NCI-H2405,0.557,0.471,0.576,0.516,0.516,1.03,0.918,1.02,0.989,1.04,0.961,0.592,0.879,0.856,0.845,0.225,0.164,0.225,0.203,0.204
SW 1573,0.369,0.359,0.374,0.34,0.38,0.966,1.17,0.931,0.947,1.1,0.703,0.767,0.893,0.796,0.826,0.465,0.379,0.506,0.414,0.676
EMC-BAC-2,0.52,0.45,0.519,0.514,0.523,0.981,1.03,1.06,1.12,1.17,0.736,0.708,0.767,0.727,0.75,0.309,0.381,0.347,0.329,0.345
NCI-H647,0.418,0.439,0.41,0.282,0.366,1.07,1.19,0.876,1.15,0.813,1.12,1.06,1.1,1.02,1.13,0.226,0.214,0.168,0.194,0.184
LCLC-97TM1,0.223,0.227,0.313,0.275,0.21,0.453,0.764,0.483,0.523,0.529,0.286,0.223,0.262,0.244,0.286,0.866,0.896,0.903,0.841,0.808
H3255,0.335,0.32,0.303,0.318,0.312,0.835,0.743,0.722,0.68,0.702,0.759,0.612,0.727,0.675,0.72,0.367,0.386,0.3,0.281,0.369
LXF-289,0.577,0.588,0.656,0.575,0.602,1.02,1.01,0.939,1.01,1,1,1,1.06,1.03,1.11,0.234,0.212,0.217,0.202,0.195
NCI-H441,0.217,0.187,0.185,0.192,0.204,–,0.426,0.453,0.552,0.77,–,0.627,0.816,0.746,0.625,0.608,0.559,0.66,0.496,0.684

Cell Line,relative viability ([1]; first compound 0.5 µM),relative viability ([1]; first compound 1.581 µM),relative viability ([1]; first compound 5 µM),relative viability ([1]; first compound 15.81 µM),relative viability ([1]; first compound 50 µM),relative viability ([2]; first compound 0.5 µM),relative viability ([2]; first compound 1.581 µM),relative viability ([2]; first compound 5 µM),relative viability ([2]; first compound 15.81 µM),relative viability ([2]; first compound 50 µM),relative viability ([3]; first compound 0.5 µM),relative viability ([3]; first compound 1.581 µM),relative viability ([3]; first compound 5 µM),relative viability ([3]; first compound 15.81 µM),relative viability ([3]; first compound 50 µM),relative viability ([4]; first compound 0.5 µM),relative viability ([4]; first compound 1.581 µM),relative viability ([4]; first compound 5 µM),relative viability ([4]; first compound 15.81 µM),relative viability ([4]; first compound 50 µM)
LC-2-ad,0.454,0.454,0.486,0.555,0.476,0.974,1.03,1.04,1.01,1.12,0.873,0.851,0.904,0.873,0.93,0.56,0.684,0.603,0.639,0.595
A-427,0.499,0.474,0.483,0.512,0.493,0.956,0.946,0.982,0.961,1.06,1.06,1.03,1.04,0.956,1.1,0.748,0.67,0.774,0.649,0.796
NCI-H322M,0.484,0.43,0.431,0.482,0.457,1.31,1.27,1.16,1.36,1.2,0.864,0.814,0.864,0.758,0.769,0.256,0.248,0.258,0.253,0.263
HCC-366,0.324,0.406,0.366,0.381,0.665,1.1,1.15,1.04,1.06,1.16,0.569,0.375,0.368,0.434,0.482,0.739,0.731,0.624,0.768,0.719
NCI-H1975,0.47,0.53,0.603,0.615,0.789,0.343,0.333,0.342,0.379,0.354,0.642,0.668,0.631,0.697,0.75,0.404,0.376,0.322,0.502,0.412
NCI-H1437,0.291,0.328,0.328,0.295,0.336,0.516,0.737,0.505,0.483,0.446,0.909,0.926,1.05,1,1.05,0.371,0.493,0.375,0.429,0.509
NCI-H2009,0.195,0.209,0.212,0.237,0.197,1.02,1.04,0.956,0.963,1.07,1.19,1.24,1.26,1.17,1.09,0.326,0.253,0.312,0.298,0.329
NCI-H1651,0.536,0.5,0.517,0.567,0.54,0.947,0.932,0.866,0.982,0.943,0.963,0.926,1.05,1.04,0.989,0.421,0.554,0.427,0.436,0.396
LCLC-103H,0.498,0.496,0.524,0.461,0.469,1.13,0.837,1.04,1.15,1.06,1.02,0.907,0.965,0.888,0.953,0.367,0.405,0.523,0.547,0.543
NCI-H1666,0.651,0.67,0.653,0.646,0.622,0.907,0.658,0.652,0.714,0.772,0.99,0.996,0.873,0.882,0.668,0.845,0.771,0.815,0.793,0.765
NCI-H1734,0.316,0.296,0.37,0.305,0.362,0.98,0.918,1.03,0.918,1.01,0.674,0.696,0.362,0.781,0.668,0.399,0.374,0.506,0.452,0.504
EPLC-272H,0.281,0.34,0.309,0.285,0.295,0.762,0.579,0.736,0.861,1.08,0.928,0.858,0.94,0.998,0.919,0.342,0.441,0.333,0.335,0.347
NCI-H2023,0.376,0.431,0.349,0.396,0.386,1.06,0.942,1.01,0.964,1.03,0.547,0.47,0.636,0.605,0.601,0.624,0.478,0.563,0.542,0.617
BEN,0.482,0.434,0.439,0.473,0.469,0.693,0.802,0.977,0.824,0.949,1.04,1.04,0.981,1.06,1.32,0.273,0.332,0.316,0.267,0.331
COR-L 105,0.41,0.354,0.405,0.391,0.392,0.879,0.664,0.694,0.737,0.891,1.13,1,1.08,0.765,0.87,0.284,0.384,0.34,0.298,0.272
ABC-1,0.726,0.776,0.909,0.793,0.714,0.263,0.271,0.277,0.297,0.235,1.27,1.03,0.924,0.949,0.942,0.543,0.644,0.521,0.562,0.565
